Results reported in publication PMC9658586, “1,4-Naphthoquinone Motif in the Synthesis of New Thiopyrano[2,3-d]thiazoles as Potential Biologically Active Compounds” (Molecules, 2022).

Key:
[1] = test system: SNB-75/ Central Nervous System Cancer; assay: NCI single-dose screen, SNB-75; format: cell-based, human; details: 10 μM, 48 h
Protocol: (§1) Considering the results of previous studies of fused thiazolidinones and their analogs, a series of thiopyrano[2,3-d]thiazoles with naphthoquinone fragments in the structure were studied for their anticancer activity. Thus, synthesized thiopyranothiazole derivatives 3.5 and 3.6 were selected by the National Cancer Institute (NCI), U.S., for their anticancer activity at 10 μM concentration toward a panel of sixty cancer cell lines representing nine different types (leukemia, melanoma, lung, colon, CNS, ovarian, renal, prostate, and breast cancers) (Figures S13–S14). Selection for screening based on new derivatives’ ability to add diversity to the NCI small molecules collection and anticancer assays were performed according to the NCI guidelines and protocols previously described. The compounds were added at the mentioned concentration, and the cell cultures were incubated for 48 h. The results for each compound were reported as the growth percent (GP%) of treated cells compared with untreated control cells.
(§2) Anticancer in vitro assay was performed on the human tumor cell lines panel derived from nine neoplastic diseases by the protocol of the Drug Evaluation Branch, National Cancer Institute, Bethesda, MD, USA [44, 45, 46]. […] GP% was spectrophotometrically evaluated vs. controls not treated with test agents.

COLO-205/ Colon Cancer = assay: NCI single-dose screen, COLO-205; format: cell-based, human; details: 10 μM, 48 h
Protocol: as §1, §2

SK-MEL-2/Melanoma = assay: NCI single-dose screen, SK-MEL-2; format: cell-based, human; details: 10 μM, 48 h
Protocol: as §1, §2

SK-MEL-5/Melanoma = assay: NCI single-dose screen, SK-MEL-5; format: cell-based, human; details: 10 μM, 48 h
Protocol: (§3) Selection for screening based on new derivatives’ ability to add diversity to the NCI small molecules collection and anticancer assays were performed according to the NCI guidelines and protocols previously described. The compounds were added at the mentioned concentration, and the cell cultures were incubated for 48 h.
(§4) Anticancer in vitro assay was performed on the human tumor cell lines panel derived from nine neoplastic diseases by the protocol of the Drug Evaluation Branch, National Cancer Institute, Bethesda, MD, USA [44, 45, 46]. Tested compounds were added to the culture at a single concentration (10^−5 M), and the cultures were incubated for 48 h. […] GP% was spectrophotometrically evaluated vs. controls not treated with test agents.

A498/ Renal Cancer = assay: NCI single-dose screen, A498; format: cell-based, human; details: 10 μM, 48 h
Protocol: as §1, §2

M14/ADR-RES/ Melanoma = assay: NCI single-dose screen, M14/ADR-RES; format: cell-based, human; details: 10 μM, 48 h
Protocol: as §3, §4

MALME-3M/Melanoma = assay: NCI single-dose screen, MALME-3M; format: cell-based, human; details: 10 μM, 48 h
Protocol: as §1, §2

salmon sperm DNA = assay: Spectroscopic DNA interaction assay (KMnO4 oxidation); format: binding; details: DNA + compound + KMnO4, time- and concentration-dependent, up to 3 h; binder if >0.05 or <−0.05
From the text: The method investigates conformational changes in the DNA; for example, when DNA is exposed to an intercalating, alkylation, or other classes of DNA-binding agents. It is based on the oxidative reaction of potassium permanganate with pyrimidine bases. Compounds that interact with DNA distort its duplex structure, thus exposing pyrimidine bases for oxidation by KMnO4, which generates products that can be detected by spectrophotometry. Different classes of DNA-binding compounds can be studied in such a way. […] Net A405 ranged from 0.00 to 0.50 in the presence of the compound, and Net A405 ranged from 0.02 to 0.045 in the control case (Figure 9).
A spectroscopic DNA interaction study was performed as previously described. salmon sperm DNA (Sigma-Aldrich, USA) was diluted in Milli-Q water at 4 °C for 24 h at 1.65 mg/mL. Tested compounds were dissolved in acetone. After 1 h of incubation of DNA and compound, KMnO4 was added to a final concentration of 0.3 mM and the absorbance at 405 nm was measured (Absorbance Reader BioTek ELx800) (BioTek Instruments, Inc., Winooski, VT, USA) in different periods up to 3 h. Appropriate controls of DNA alone and compound alone were included, and these Abs values were subtracted from the test sample to provide the net change in absorbance (NetAbs). […]

LOX IMVI/Melanoma = assay: NCI single-dose screen, LOX IMVI; format: cell-based, human; details: 10 μM, 48 h
Protocol: as §1, §2

UO-31/Renal Cancer = assay: NCI single-dose screen, UO-31; format: cell-based, human; details: 10 μM, 48 h
Protocol: as §1, §2

| SMILES | Most Sensitive Cell Line Growth, % (SNB-75/ Central Nervous System Cancer) [1] [%] | Most Sensitive Cell Line Growth, % (COLO-205/ Colon Cancer) (COLO-205/ Colon Cancer) [%] | Most Sensitive Cell Line Growth, % (SK-MEL-2/Melanoma) (SK-MEL-2/Melanoma) [%] | Most Sensitive Cell Line Growth, % (SK-MEL-5/Melanoma) (SK-MEL-5/Melanoma) [%] | Most Sensitive Cell Line Growth, % (A498/ Renal Cancer) (A498/ Renal Cancer) [%] | Most Sensitive Cell Line Growth, % (M14/ADR-RES/ Melanoma) (M14/ADR-RES/ Melanoma) [%] | Most Sensitive Cell Line Growth, % (MALME-3M/Melanoma) (MALME-3M/Melanoma) [%] | Net A405 (net change in absorbance) (salmon sperm DNA) | Most Sensitive Cell Line Growth, % (LOX IMVI/Melanoma) (LOX IMVI/Melanoma) [%] | Most Sensitive Cell Line Growth, % (UO-31/Renal Cancer) (UO-31/Renal Cancer) [%] |
| --- | --- | --- | --- | --- | --- | --- | --- | --- | --- | --- |
| COc1cccc2c1C(=O)c1c(O)c3c(c(O)c1C2=O)C[C@@](O)(C(=O)CO)C[C@@H]3O[C@H]1C[C@H](N)[C@H](O)[C@H](C)O1 [Doxorubicin, doxorubicin, reference compound] | −76.10 | −81.60 | −82.60 | −86.40 | −75.10 | −71.60 |  |  |  |  |
| O=C1C2=C(C(=O)c3ccccc31)C(CCc1ccccc1)c1sc(=O)[nH]c1S2 (stereo not shown) [Compound 3.6, 11-Phenethyl-3,11-dihydro-2H-benzo[6,7]thiochromeno[2,3-d]thiazole-2,5,10-trione] |  |  |  |  |  |  | 45.25 | 0.00 to 0.50 | 57.17 | 51.76 |
